Experimental data from PMC10471729, “Luvadaxistat: A Novel Potent and Selective D-Amino Acid Oxidase Inhibitor Improves Cognitive and Social Deficits in Rodent Models for Schizophrenia” (Neurochemical Research, 2023).

Target: T1, D-amino acid oxidase (DAAO) (Mus musculus, UniProt P18894)
T1 construct: gene Dao
Test: cell-based

T1 sequence (P18894 whole entry): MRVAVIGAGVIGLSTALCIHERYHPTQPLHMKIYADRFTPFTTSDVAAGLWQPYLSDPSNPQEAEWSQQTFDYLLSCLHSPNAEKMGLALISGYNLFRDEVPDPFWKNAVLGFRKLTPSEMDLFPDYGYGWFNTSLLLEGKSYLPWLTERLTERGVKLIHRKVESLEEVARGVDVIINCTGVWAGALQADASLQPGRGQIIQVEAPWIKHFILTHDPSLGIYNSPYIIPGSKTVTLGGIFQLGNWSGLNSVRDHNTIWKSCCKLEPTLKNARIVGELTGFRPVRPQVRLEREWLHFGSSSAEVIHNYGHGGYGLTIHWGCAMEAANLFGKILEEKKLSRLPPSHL

SMILES: O=c1[nH]nc(CCc2ccc(C(F)(F)F)cc2)cc1O [luvadaxistat]
- IC50: 5.1 nM
